Measured values: EP4635500A1, “THERAPEUTIC AGENT FOR BACTERIAL INFECTION” (Sumitomo Pharma Co., Ltd., priority 2022, dated 2024)
≈ marks a conversion by molar mass, not a printed value. Where two headings read alike, the source gives them in different places.

Test system: P. aeruginosa
Assay: MIC, broth microdilution, CDC/FDA Antibiotic Resistance Isolate Bank (Example 7, Tables 10, 15)
Format: cell-based
Conditions: for MIC: Pseudomonas aeruginosa, read-out: MIC
[1] = 26 metallo-carbapenemase-producing P. aeruginosa strains, β-lactamase inhibitor µg/mL in parentheses
[2] = 96 strains of P. aeruginosa, β-lactamase inhibitor µg/mL in parentheses

With `CC(C)(O/N=C(\C(=O)N[C@@H]1C(=O)N2C(C(=O)[O-])=C(C[N+]3(CCNC(=O)c4ccc(O)c(O)c4Cl)CCCC3)CS[C@H]12)c1csc(N)n1)C(=O)O` [Cefiderocol, cefiderocol] the “MIC against 26 metallo-carbapenemase-producing strains MIC50” value [1] was 0.5 µg(mL), the “MIC against 26 metallo-carbapenemase-producing strains MIC90” value [1] was 2 µg(mL) and the “MIC against 26 metallo-carbapenemase-producing strains MICrange” value [1] was 0.25 - 4 µg(mL). The “MIC against 96 strains of P. aeruginosa MIC50” value [2] was 0.5 µg(mL), the “MIC against 96 strains of P. aeruginosa MIC90” value [2] was 2 µg(mL) and the “MIC against 96 strains of P. aeruginosa MICrange” value [2] was ≤0.06 - 4 µg(mL). It also gave an MIC (P. aeruginosa KUB No. 579, AR Bank # 447) of 0.12 µg/mL (≈ 0.16 µM), an MIC (P. aeruginosa KUB No. 5083, AR Bank # 250) of 4 µg/mL (≈ 5.32 µM) and an MIC (P. aeruginosa KUB No. 5551, AR Bank # 54) of 0.5 µg/mL (≈ 0.665 µM). It also gave an MIC (P. aeruginosa KUB No. 5561, AR Bank # 64) of 2 µg/mL (≈ 2.66 µM), an MIC (P. aeruginosa KUB No. 5587, AR Bank # 90) of 1 µg/mL (≈ 1.33 µM) and an MIC (P. aeruginosa KUB No. 5589, AR Bank # 92) of 2 µg/mL (≈ 2.66 µM). It also gave an MIC (P. aeruginosa KUB No. 5591, AR Bank # 94) of 2 µg/mL (≈ 2.66 µM), an MIC (P. aeruginosa KUB No. 5592, AR Bank # 95) of 0.5 µg/mL (≈ 0.665 µM) and an MIC (P. aeruginosa KUB No. 5597, AR Bank # 100) of 0.5 µg/mL (≈ 0.665 µM). It also gave an MIC (P. aeruginosa KUB No. 5600, AR Bank # 103) of 1 µg/mL (≈ 1.33 µM), an MIC (P. aeruginosa KUB No. 5602, AR Bank # 105) of 1 µg/mL (≈ 1.33 µM) and an MIC (P. aeruginosa KUB No. 5605, AR Bank # 108) of 0.5 µg/mL (≈ 0.665 µM). The MIC (P. aeruginosa KUB No. 5607, AR Bank # 110) was 0.25 µg/mL (≈ 0.332 µM), the MIC (P. aeruginosa KUB No. 5608, AR Bank # 111) was 0.5 µg/mL (≈ 0.665 µM) and the MIC (P. aeruginosa KUB No. 5662, AR Bank # 229) was 0.12 µg/mL (≈ 0.16 µM). It also gave an MIC (P. aeruginosa KUB No. 5663, AR Bank # 230) of 0.5 µg/mL (≈ 0.665 µM), an MIC (P. aeruginosa KUB No. 5664, AR Bank # 231) of 2 µg/mL (≈ 2.66 µM) and an MIC (P. aeruginosa KUB No. 5665, AR Bank # 232) of 0.12 µg/mL (≈ 0.16 µM). For the same molecule, the MIC (P. aeruginosa KUB No. 5666, AR Bank # 23) was 0.12 µg/mL (≈ 0.16 µM), the MIC (P. aeruginosa KUB No. 5667, AR Bank # 234) was 0.25 µg/mL (≈ 0.332 µM) and the MIC (P. aeruginosa KUB No. 5668, AR Bank # 235) was 1 µg/mL (≈ 1.33 µM). The MIC (P. aeruginosa KUB No. 5669, AR Bank # 236) was 0.25 µg/mL (≈ 0.332 µM), the MIC (P. aeruginosa KUB No. 5670, AR Bank # 237) was 0.25 µg/mL (≈ 0.332 µM) and the MIC (P. aeruginosa KUB No. 5671, AR Bank # 238) was 1 µg/mL (≈ 1.33 µM). It also gave an MIC (P. aeruginosa KUB No. 5672, AR Bank # 239) of 2 µg/mL (≈ 2.66 µM), an MIC (P. aeruginosa KUB No. 5673, AR Bank # 240) of 1 µg/mL (≈ 1.33 µM) and an MIC (P. aeruginosa KUB No. 5674, AR Bank # 241) of 0.25 µg/mL (≈ 0.332 µM). For the same molecule, the MIC (P. aeruginosa KUB No. 5675, AR Bank # 242) was 0.5 µg/mL (≈ 0.665 µM), the MIC (P. aeruginosa KUB No. 5676, AR Bank # 243) was 0.5 µg/mL (≈ 0.665 µM) and the MIC (P. aeruginosa KUB No. 5677, AR Bank # 244) was 0.25 µg/mL (≈ 0.332 µM). For the same molecule, the MIC (P. aeruginosa KUB No. 5678, AR Bank # 245) was 0.25 µg/mL (≈ 0.332 µM), the MIC (P. aeruginosa KUB No. 5679, AR Bank # 246) was 4 µg/mL (≈ 5.32 µM) and the MIC (P. aeruginosa KUB No. 5680, AR Bank # 247) was 0.12 µg/mL (≈ 0.16 µM). It also gave an MIC (P. aeruginosa KUB No. 5681, AR Bank # 248) of 0.5 µg/mL (≈ 0.665 µM), an MIC (P. aeruginosa KUB No. 5682, AR Bank # 249) of 0.5 µg/mL (≈ 0.665 µM) and an MIC (P. aeruginosa KUB No. 5684, AR Bank # 251) of 0.12 µg/mL (≈ 0.16 µM). It also gave an MIC (P. aeruginosa KUB No. 5685, AR Bank # 252) of 2 µg/mL (≈ 2.66 µM), an MIC (P. aeruginosa KUB No. 5686, AR Bank # 253) of 0.12 µg/mL (≈ 0.16 µM) and an MIC (P. aeruginosa KUB No. 5687, AR Bank # 254) of 0.5 µg/mL (≈ 0.665 µM). The MIC (P. aeruginosa KUB No. 5688, AR Bank # 255) was 0.25 µg/mL (≈ 0.332 µM), the MIC (P. aeruginosa KUB No. 5689, AR Bank # 256) was 2 µg/mL (≈ 2.66 µM) and the MIC (P. aeruginosa KUB No. 5690, AR Bank # 257) was 0.25 µg/mL (≈ 0.332 µM). For the same molecule, the MIC (P. aeruginosa KUB No. 5691, AR Bank # 258) was 0.25 µg/mL (≈ 0.332 µM), the MIC (P. aeruginosa KUB No. 5692, AR Bank # 259) was 0.12 µg/mL (≈ 0.16 µM) and the MIC (P. aeruginosa KUB No. 5693, AR Bank # 260) was 0.25 µg/mL (≈ 0.332 µM). For the same molecule, the MIC (P. aeruginosa KUB No. 5694, AR Bank # 261) was no more than 0.06 µg/mL, the MIC (P. aeruginosa KUB No. 5695, AR Bank # 262) was 0.12 µg/mL (≈ 0.16 µM) and the MIC (P. aeruginosa KUB No. 5696, AR Bank # 263) was 0.12 µg/mL (≈ 0.16 µM). The MIC (P. aeruginosa KUB No. 5697, AR Bank # 264) was 0.25 µg/mL (≈ 0.332 µM), the MIC (P. aeruginosa KUB No. 5698, AR Bank # 265) was 0.5 µg/mL (≈ 0.665 µM) and the MIC (P. aeruginosa KUB No. 5699, AR Bank # 266) was 0.5 µg/mL (≈ 0.665 µM). The MIC (P. aeruginosa KUB No. 5700, AR Bank # 267) was 0.12 µg/mL (≈ 0.16 µM), the MIC (P. aeruginosa KUB No. 5701, AR Bank # 268) was 0.25 µg/mL (≈ 0.332 µM) and the MIC (P. aeruginosa KUB No. 5702, AR Bank # 269) was 1 µg/mL (≈ 1.33 µM). For the same molecule, the MIC (P. aeruginosa KUB No. 5703, AR Bank # 270) was 0.25 µg/mL (≈ 0.332 µM), the MIC (P. aeruginosa KUB No. 5704, AR Bank # 271) was 0.25 µg/mL (≈ 0.332 µM) and the MIC (P. aeruginosa KUB No. 5705, AR Bank # 272) was 0.25 µg/mL (≈ 0.332 µM). It also gave an MIC (P. aeruginosa KUB No. 5747, AR Bank # 351) of 0.25 µg/mL (≈ 0.332 µM).
